Reference: patent US8580787B2, “Compositions and methods for reducing activation of alpha-1 receptors” (Eye Therapies LLC, priority 2008, dated 2013)

Key:
[1] = Example 5: chronic red eyes, patient satisfaction assessment, eld brimonidine vs Naphcon-A; format: in vivo, human; conditions: brimonidine at […], drops twice a day for three to five weeks, seven patients, all patients
Experimental: The treatment was through drops twice a day for three to five weeks. At the end, patient satisfaction assessment was conducted.

[2] = Example 2: Lasik prophylaxis, postoperative hyperemia, hemorrhage and flap dislocation; conditions: brimonidine 0.02%
[3] = 0.03% brimonidine nasal spray, 0.9% saline vehicle, n of 1
[4] = FIGS. 5A-C: induction and reversal of rebound hyperemia in a patient's eyes; format: in vivo, human; conditions: brimonidine at […], right eye, after VISINE Original
From the text: FIG. 5A is a baseline visual appearance of two eyes of a patient with an ocular condition.

[5] = brimonidine 0.01-[…] left eye vs tetrahydrozoline 0.05%, oxymetazoline […], naphazoline […] right eye; baseline redness 4/4
From the text: FIG. 4A is a baseline visual appearance of two eyes of a patient with an ocular condition.
In an average clinical situation, baseline redness is at 1-1.5/4.

Which results are given for Brc1c(N=C2NCCN2)ccc2nccnc12.O=C(O)C(O)C(O)C(=O)O [brimonidine, 5-bromo-6-(2-imidazolidinylideneamino)quinoxaline L-tartrate]?
patient-reported redness [1]: reduced redness; cosmetic appearance vs. no vasoconstrictor and vs. Naphcon-A ([2]; from day 1 after Lasik): much improved; hyperemia in the majority of the 1+ or less hyperemic group ([2]; over 500 eyes): no or only trace hyperemia; duration of complete relief of moderate nasal congestion per application [3]: 3 to 5 h; effect on VISINE Original induced rebound hyperemia [4]: reversing the VISINE Original® induced rebound hyperemia; scleral whitening brightening effects [5]: significant scleral whitening brightening effects
